Series [1] can be described thus: In vivo inhibition of LMP2 activity in BALB/c mouse blood at 40 mg/kg, iv measured after 2 hrs relative to control. The format is functional.
Series [2] in a line: AUC (0 to last) in BALB/c mouse at 150 mg/kg, po measured after 15 to 360 mins by LC-MS/MS analysis. The format is ADME, organism-based. Particulars: in vivo, time 15-360 min.
The nature of series [3]: Unbound clearance in human plasma. The format is ADME, cell-free.
Series [4] is described as follows: Half life in BALB/c mouse at 40 mg/kg, iv measured upto 1440 mins by LC-MS/MS analysis. The format is ADME, organism-based. Particulars: in vivo, 24 h.
Series [5] is described as follows: Tmax in BALB/c mouse at 150 mg/kg, po measured after 15 to 360 mins by LC-MS/MS analysis. Particulars: in vivo, time 15-360 min. The format is ADME, organism-based.
In series [6] the target is T1, Proteasome subunit beta type-9 (Mus musculus) (UniProt P28076).
T1 sequence (whole entry): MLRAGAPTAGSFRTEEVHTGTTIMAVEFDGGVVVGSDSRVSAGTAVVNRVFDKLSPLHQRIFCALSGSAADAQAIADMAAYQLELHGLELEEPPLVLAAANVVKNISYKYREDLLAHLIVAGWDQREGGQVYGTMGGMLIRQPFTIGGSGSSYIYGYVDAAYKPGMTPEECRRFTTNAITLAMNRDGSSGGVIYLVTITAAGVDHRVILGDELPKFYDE
The series is described as follows: Inhibition of LMP2 in mouse BV-2 cells using Ac-PAL-AMC as substrate at 0.3 to 1 uM measured after 24 hrs by fluorescence based SpectraMax M5e plate reader. The format is cell-based. Particulars: dose 0.3-1 µM.

Series [7] in a line: Half life in BALB/c mouse at 150 mg/kg, po measured after 15 to 360 mins by LC-MS/MS analysis. The format is ADME, organism-based. Particulars: in vivo, time 15-360 min.
A short description of series [8]: In vivo inhibition of LMP2 activity in BALB/c mouse brain at 40 mg/kg, iv measured after 2 hrs relative to control. The format is functional.
Series [9] in a line: Cytotoxicity against human HMC3 cells assessed as reduction in cell viability incubated for 96 hrs by CellTiter 96 Aqueous One Solution Cell Proliferation Assay. The format is toxicity, cell-based.
Series [10] in a line: In vivo inhibition of LMP2 activity in BALB/c mouse brain at 40 mg/kg, iv measured after 24 hrs relative to control. The format is functional.
The nature of series [11]: Toxicity in BALB/c mouse assessed as paralysis at 100 mg/kg, po. The format is organism-based. Particulars: in vivo.
Series [12] in a line: Mutagenicity in Salmonella typhimurium TA98 at 0.01 to 100 uM incubated for 90 mins in presence of liver S9 fraction by AMES test. The format is toxicity, subcellular. Particulars: salmonella enterica subsp. enterica serovar typhimurium, s9, 1.5 h, dose 0.01-100 µM.
The nature of series [13]: Toxicity in BALB/c mouse assessed as tremor at 100 mg/kg, po. The format is organism-based. Particulars: in vivo.

Calls of active or inactive are those of the source. The rule behind the calls is not given here. Where only a bound is given, the exact number is not on record here.

Experimental findings from ChEMBL document CHEMBL5506017, “Brain-Permeable Immunoproteasome-Targeting Macrocyclic Peptide Epoxyketones for Alzheimer's Disease” (J Med Chem, 2024) are described below.

For `CC(C)C[C@H](NC(=O)[C@@H]1COCCCCCC(=O)N2C[C@H](F)C[C@H]2C(=O)N1)C(=O)[C@@]1(C)CO1`, the inhibition in vivo at 40 mg/kg in series [1] turned out to be 100%; in [8] it was 56%; in series [10], 39%. Also, the AUClast in series [2] stood at 3553 ng·h/mL. Also, the CL free in series [3] worked out at 72 mL/min/kg. In addition, the figures for the t1/2 in [4] and in [7] were 25.2 min and 47.5 min, respectively. Besides, the time to peak (Tmax) in series [5] is 20 min. In [6], the inhibition entry was “Active”. For the same molecule, the concentration for half-maximal inhibition (IC50) at 96 h in [9] is greater than 100 µM. The Activity entry in [11], in [12] and in [13] was “Non-Toxic” each time.

Broadly, the inhibition in vivo is the drop in the measured response relative to a control, in per cent. Read a low inhibition in vivo as a response near the control. The term Tmax denotes the time from dosing to the highest level. Broadly, the IC50 is the point on the concentration scale where inhibition reaches its midpoint.
